From patent US20170183306A1, “CYCLIC COMPOUNDS HAVING A 1,3 DIAMINO-FUNCTIONALITY FOR USE IN THE TREATMENT OF HIV INFECTION” (Universite Paris Descartes, priority 2014, published 2017)
Structures can show the parent of a compound that is named as a salt. Where two headings read alike, the source gives them in different places.

Tests used:
Assay type in all cases: cell-based
[1] = tested on: J-Lat cells; test: J-Lat cells, percentage of GFP-positive cells by cytometry; conditions: 24 h, compound alone
Description: The J-Lat were grown in RPMI 1640 medium (Gibco-BRL) supplemented with 10% fetal bovine serum, 50 U/ml of penicillin, […] of streptomycin at 37 uC in a humidified 95% air/5% CO2 atmosphere. The cells were plated at 5.105 cells in a 96 well-plate. TNF ? was purchased from Immunosource. SAHA (suberoylanilide hydroxamic acid), prostratin (12-deoxyphorbol-13-acetate) and vorinostat were obtained from Sigma-Aldrich. The J-Lat cells were treated for 24 h with the different compounds alone. The cells were washed twice in PBS, re-suspended in PBS containing 4% paraformaldehyde and fixed for 30 min. Cells were next washed and re-suspended in PBS. The percentage of GFP-positive cells was measured with a LSRFortessa cytometer (Becton-Dickinson) using FACSDiva Version 6.1.3 according to the manufacturer's instructions.
The results for the J-Lat cells experiments are expressed as a percentage of the living fluorescent cells. In this model, some slight increase of viral production measured by fluorescence are quantified (table 1).

[2] = tested on: HeLa-p4 cells; test: Cell viability assay (MTS) on HeLa-p4 cells
Description: (§1) HeLa-p4 cells are HeLa CD4 LTR-LacZ wherein LacZ expression is induced by the trans-activating protein Tat of HIV, making possible the precise quantification of HIV-1 infectivity from a single replication cycle. HeLa-CD4 cells growing exponentially at a density of 1×10^4/mL were placed in 96-well plates and infected the following day with 1 ng of HIV p24 antigen in the presence of different concentrations of compounds. The titles for a single cycle of the viruses were determined 48 hours after infection by quantifying the beta-galactosidase activity in lysates P4 by colorimetric test (CPRG, Promega) based on the cleavage of chlorophenol red-beta-D-galactopyranoside (CPRG) by beta-galactosidase. A cell viability assay measuring the absorbance at […] using the yellow tetrazolium reagent MTS [[…]] (Promega) was carried out.
(§2) For the helap4 cells experiments, the efficacy of the compounds is determined in comparison with control cells containing wild type NL4-3 virus alone (i.e. without any added compound) and is expressed as percentage of control. Then, the viral replication was increased for several compounds at the 50 and 100 μM concentrations with an absence of cytotoxic effects at the same concentrations (MTS test) (table 1).

[3] = tested on: wild type NL4-3 virus (HIV-1) in HeLa-p4 cells; test: HeLa-p4 single-cycle HIV-1 infectivity, beta-galactosidase CPRG test; conditions: 48 hours after infection, control = NL4-3 virus alone; for activity at 50 µM / activity at 100 µM / activity at 200 µM: Human immunodeficiency virus 1, NL43, HeLaP4; for activity at 50 µM: read-out: Hela-p4 CPRG 50 μM; for activity at 100 µM: read-out: Hela-p4 CPRG 100 μM
Description: as §1, §2

Compound	J-lat 50 μM [1]	J-lat 100 μM [1]	Hela-p4 MTS 50 μM ([2]; 50 μM, cell viability)	Hela-p4 MTS 100 μM ([2]; 100 μM, cell viability)	activity at 50 µM ([3]; 50 μM) [%]	activity at 100 µM ([3]; 100 μM) [%]	Hela-p4 MTS 200 μM ([2]; cell viability)	activity at 200 µM [3] [%]	Hela-p4 MTS 50 μM [2]	Hela-p4 MTS 100 μM [2]	Hela-p4 CPRG 50 μM ([3]; 50 μM)	Hela-p4 CPRG 100 μM ([3]; 100 μM)
N[C@@H]1C[C@H](N)CN(c2ccc3[nH]ccc3c2)C1 [AB-86, (3S,5R)-1-(1H-indol-5-yl)piperidine-3,5-diamine]	0.1 percentage of the living fluorescent cells	2.6 percentage of the living fluorescent cells	81	74	80	66						
N[C@@H]1C[C@H](N)CN(Cc2ccco2)C1 [ECO02-065-C]	0.5 percentage of the living fluorescent cells		91	88	108	125	68	205				
N[C@@H]1C[C@H](N)CN(S(=O)(=O)c2ccccc2)C1 [ECO03-001-B, 1-(phenylsulfonyl)piperidine-3,5-diamine]	0.6 percentage of the living fluorescent cells		97	104	118	170	109	360				
COc1ccc(-c2ccc(N3C[C@H](N)C[C@H](N)C3)cc2)cc1 [ECO02-029-C, 1-(4′-methoxy-[1,1′-biphenyl]-4-yl)piperidine-3,5-diamine4-(2-((3S,5R)-3,5-diaminopiperidin-1-yl)ethyl)phenol]	2.4 percentage of the living fluorescent cells		25	25	29	30						
CC(C)(C)OC(=O)N[C@@H]1C[C@H](NC(=O)OC(C)(C)C)CN(S(=O)(=O)c2ccccc2)C1 [ECO02-081-C, di-tert-butyl (1-(phenylsulfonyl)piperidine-3,5-diyl)dicarbamate]	0.8 percentage of the living fluorescent cells		91	69	196	207	77	279				
COc1ccccc1CCN1C[C@H](N)C[C@H](N)C1 [ECO01-031-C, 1-(2-methoxyphenethyl)piperidine-3,5-diamine]	0.1 percentage of the living fluorescent cells	4.8 percentage of the living fluorescent cells	88	82	88	108						
COc1cccc(N2C[C@H](N)C[C@H](N)C2)c1 [ECO01-055-C, 1-(3-methoxyphenyl)piperidine-3,5-diamine]	0.4 percentage of the living fluorescent cells	0.1 percentage of the living fluorescent cells	94	94	111	153						
COC(=O)N[C@@H]1C[C@H](NC(=O)OC)CN(CCc2cccc(OC)c2)C1 [ECO02-074-C, dimethyl (1-(3-methoxyphenethyl)piperidine-3,5-diyl)dicarbamate]	0.4 percentage of the living fluorescent cells		101	91	139	186	70	326				
Cc1ccc(CCN2C[C@H](N)C[C@H](N)C2)cc1 [ECO01-029-C, 1-(4-methylphenethyl)piperidine-3,5-diamine]	0.1 percentage of the living fluorescent cells	15.8 percentage of the living fluorescent cells	94	89	126	109						
N[C@@H]1C[C@H](N)CN(CCCc2ccccc2)C1 [ECO01-035-C, 1-(3-phenylpropyl)piperidine-3,5-diamine]	1.5 percentage of the living fluorescent cells	2.8 percentage of the living fluorescent cells	105	88	169	147						
N[C@@H]1C[C@H](N)CN(CCCCc2ccccc2)C1 [ECO02-026-C, 1-(4-phenylbutyl)piperidine-3,5-diamine]	65.0 percentage of the living fluorescent cells		26	26	30	31						
COc1ccc(CN2C[C@H](N)C[C@H](N)C2)cc1 [AB-378, (3S,5R)-1-(4-methoxybenzyl)piperidine-3,5-diamine]	0.2 percentage of the living fluorescent cells	1.7 percentage of the living fluorescent cells	98	94	169	199	72	312				
COc1cccc(CCN2C[C@@H](N)C[C@@H](NS(C)(=O)=O)C2)c1 (racemic) [ECO02-073-C, rac-cis-N-(5-amino-1-(3-methoxyphenethyl)piperidin-3-yl) methanesulfonamide]	0.8 percentage of the living fluorescent cells		100	99	151	205	79	417				
CC(C)N1C[C@H](N)C[C@H](N)C1 [AB542, 1-isopropylpiperidine-3,5-diamine]	0.1 percentage of the living fluorescent cells	0.7 percentage of the living fluorescent cells	100	99	113	106						
N[C@@H]1C[C@H](N)CN(c2ccc(C(=O)N3CCCCCC3)cc2)C1 [ECO02-007-C, azepan-1-yl(4-(3,5-diaminopiperidin-1-yl)phenyl)methanone]	0.6 percentage of the living fluorescent cells		97	98	87	98						
1-(3,5-diaminopiperidin-1-yl)-2-(3-methoxyphenyl)ethanone [ECO02-031-C]	0.2 percentage of the living fluorescent cells	0.1 percentage of the living fluorescent cells							116	110	146 percentage of control	222 percentage of control
CC(C)(C)OC(=O)N[C@@H]1C[C@H](NC(=O)OC(C)(C)C)CN(Cc2ccco2)C1 [ECO02-058-C, di-tert-butyl (1-(furan-2-ylmethyl)piperidine-3,5-diyl)dicarbamate]	1.4 percentage of the living fluorescent cells		105	88	110	159	87	194				
COc1ccc(CCN2C[C@H](N)C[C@H](N)C2)cc1 [ECO02-025-C, 1-(4-methoxyphenethyl)piperidine-3,5-diamine]	0.3 percentage of the living fluorescent cells	0.3 percentage of the living fluorescent cells	112	82	90	123						
N[C@@H]1C[C@H](N)CN(Cc2ccccc2)C1 [ECO02-063-C, 1-benzylpiperidine-3,5-diamine trihydrochloride]	2.9 percentage of the living fluorescent cells		108	112	85	107	81	193				
COc1ccc(N2C[C@H](N)C[C@H](N)C2)cc1 [ECO01-056-C, 1-(4-methoxyphenyl)piperidine-3,5-diamine]	0.1 percentage of the living fluorescent cells	0.2 percentage of the living fluorescent cells	68	81	94	122						
